In US12540129B2, “KIF18A inhibitors” (AMGEN INC., priority 2019, dated 2026):

Biological target: T1, Recombinant human KIF18A (1-467 His-tagged) protein (Homo sapiens, UniProt Q8NI77)
T1 construct: Recombinant human KIF18A (1-467 His-tagged) protein; His; made in house
Experiment: KIF18A Enzyme Assay: microtubule-stimulated ATPase activity (ADP-Glo)
Format: biochemical
Settings: 30 nM KIF18A, 75 μM ATP
Source text: KIF18A Enzyme Assay: Microtubule-stimulated ATPase activity assay is used to measure KIF18A enzyme activity after treatment with compound. Compounds were 2-fold serially diluted in DMSO (Sigma Inc) over 22-point concentration range. Recombinant human KIF18A (1-467 His-tagged) protein was expressed using a baculovirus system and purified by affinity chromatography by Amgen Inc. Concentrations of KIF18A protein, microtubules (MT), and ATP in the reaction were optimized for standardized homogenous enzyme assay using ADP-Glorm Kinase/ATPase Assay Kit (Promega Inc). The assay measures ADP formed from the ATPase reaction. […] Read luminescence using EnVision microplate reader with ultra-luminescence module (Perkin Elmer Inc). Concentration-response curve-fitting and IC50 determination was performed using Genedata Screener Software (Standard 15.0.1, Genedata Inc) with a four-parameter logistic regression fit model.
Table A provides data for compounds exemplified in the present application and priority document thereof, as representative compounds of the present invention, as follows: chemical name (as named by either ACD software or ChemDraw (Professional 15.0)) and biological data (IC50 in μM). Ex. # refers to Example No.

T1 sequence (Q8NI77 1-467): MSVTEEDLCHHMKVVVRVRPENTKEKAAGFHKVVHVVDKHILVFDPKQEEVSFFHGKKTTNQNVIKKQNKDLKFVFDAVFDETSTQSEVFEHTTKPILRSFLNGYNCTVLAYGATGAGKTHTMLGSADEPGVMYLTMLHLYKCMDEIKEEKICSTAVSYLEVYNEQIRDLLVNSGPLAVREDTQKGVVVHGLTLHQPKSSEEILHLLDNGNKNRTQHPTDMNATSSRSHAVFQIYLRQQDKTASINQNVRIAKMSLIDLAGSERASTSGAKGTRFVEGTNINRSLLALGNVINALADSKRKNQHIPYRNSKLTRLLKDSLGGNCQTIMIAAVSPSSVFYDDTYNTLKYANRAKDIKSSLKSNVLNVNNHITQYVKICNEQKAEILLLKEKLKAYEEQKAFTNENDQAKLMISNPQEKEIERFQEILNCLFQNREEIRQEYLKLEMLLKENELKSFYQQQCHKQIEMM
T1 sequence (P02550 whole entry partner): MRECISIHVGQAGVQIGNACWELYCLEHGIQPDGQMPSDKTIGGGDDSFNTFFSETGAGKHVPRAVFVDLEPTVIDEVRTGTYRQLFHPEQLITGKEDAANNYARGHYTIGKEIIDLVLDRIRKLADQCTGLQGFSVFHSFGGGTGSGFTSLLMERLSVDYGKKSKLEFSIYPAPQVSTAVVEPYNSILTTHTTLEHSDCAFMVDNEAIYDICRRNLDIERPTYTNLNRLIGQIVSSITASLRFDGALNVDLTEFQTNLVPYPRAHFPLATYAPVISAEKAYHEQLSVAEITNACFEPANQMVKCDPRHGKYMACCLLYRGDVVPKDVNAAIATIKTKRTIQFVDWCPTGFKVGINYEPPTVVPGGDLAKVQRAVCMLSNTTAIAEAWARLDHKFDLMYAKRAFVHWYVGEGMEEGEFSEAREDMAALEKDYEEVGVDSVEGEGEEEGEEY
T1 sequence (P02554 whole entry partner): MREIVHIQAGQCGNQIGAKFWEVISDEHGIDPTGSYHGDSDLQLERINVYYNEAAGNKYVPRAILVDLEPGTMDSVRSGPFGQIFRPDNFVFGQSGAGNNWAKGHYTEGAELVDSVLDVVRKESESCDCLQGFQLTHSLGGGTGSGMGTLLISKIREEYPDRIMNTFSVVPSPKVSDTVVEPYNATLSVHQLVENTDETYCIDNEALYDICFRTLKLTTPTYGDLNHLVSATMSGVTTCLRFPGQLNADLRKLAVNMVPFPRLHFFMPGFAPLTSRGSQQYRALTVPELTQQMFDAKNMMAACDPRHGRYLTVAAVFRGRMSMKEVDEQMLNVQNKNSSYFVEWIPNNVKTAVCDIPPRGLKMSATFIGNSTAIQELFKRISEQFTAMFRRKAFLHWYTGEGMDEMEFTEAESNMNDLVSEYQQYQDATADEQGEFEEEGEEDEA

SMILES	IC50
CC1(C)CCN(c2ncccc2C(=O)Nc2cccc(S(=O)(=O)N3CCCCC3)c2)CC1 [Example 100, 2-(4,4-Dimethylpiperidin-1-yl)-N-(3-(piperidin-1-ylsulfonyl)phenyl)nicotinamide]	0.553 µM
O=C(Nc1cccc(S(=O)(=O)N2CCCCC2)c1)c1cccnc1N1CCC2(CC1)CC2 [Example 100-1, N-(3-(piperidin-1-ylsulfonyl)phenyl)-2-(6-azaspiro[2.5]octan-6-yl)nicotinamide]	0.342 µM
CCC1CCN(c2ncccc2C(=O)Nc2cccc(S(=O)(=O)N3CCCCC3)c2)CC1 [Example 100-2, 2-(4-ethylpiperidin-1-yl)-N-(3-(piperidin-1-ylsulfonyl)phenyl)nicotinamide]	0.983 µM
CCCC1CCN(c2ncccc2C(=O)Nc2cccc(S(=O)(=O)N3CCCCC3)c2)CC1 [Example 100-3, N-(3-(piperidin-1-ylsulfonyl)phenyl)-2-(4-propylpiperidin-1-yl)nicotinamide]	0.656 µM
O=C(Nc1cccc(S(=O)(=O)N2CCCCC2)c1)c1cccnc1N1CCC2(CCC2)CC1 [Example 100-4, N-(3-(piperidin-1-ylsulfonyl)phenyl)-2-(7-azaspiro[3.5]nonan-7-yl)nicotinamide]	0.217 µM
O=C(Nc1cccc(S(=O)(=O)N2CCC(F)CC2)c1)c1cccnc1N1CCC2(CCC2)CC1 [Example 100-5, N-(3-((4-fluoropiperidin-1-yl)sulfonyl)phenyl)-2-(7-azaspiro[3.5]nonan-7-yl)nicotinamide]	0.16 µM
O=C(Nc1cccc(S(=O)(=O)N2CCC(F)(F)CC2)c1)c1cccnc1N1CCC2(CCC2)CC1 [Example 100-6, N-(3-((4,4-difluoropiperidin-1-yl)sulfonyl)phenyl)-2-(7-azaspiro[3.5]nonan-7-yl)nicotinamide]	0.09 µM
O=C(Nc1cccc(S(=O)(=O)N2CCC(F)(F)CC2)c1)c1cccnc1N1CCC2(CC1)CC2 [Example 100-7, N-(3-((4,4-difluoropiperidin-1-yl)sulfonyl)phenyl)-2-(6-azaspiro[2.5]octan-6-yl)nicotinamide]	0.104 µM
O=C(Nc1cccc(S(=O)(=O)N2CCC(F)CC2)c1)c1cccnc1N1CCC2(CC1)CC2 [Example 100-8, N-(3-((4-fluoropiperidin-1-yl)sulfonyl)phenyl)-2-(6-azaspiro[2.5]octan-6-yl)nicotinamide]	0.259 µM
Cc1ccc(NC(=O)c2cccnc2N2CCC(C)(C)CC2)cc1S(=O)(=O)N1CCCCC1 [Example 100-9, 2-(4,4-dimethylpiperidin-1-yl)-N-(4-methyl-3-(piperidin-1-ylsulfonyl)phenyl)nicotinamide]	0.282 µM
Cc1ccc(NC(=O)c2cccnc2N2CCC3(CC2)CC3)cc1S(=O)(=O)N1CCCCC1 [Example 100-10, N-(4-methyl-3-(piperidin-1-ylsulfonyl)phenyl)-2-(6-azaspiro[2.5]octan-6-yl)nicotinamide]	0.211 µM
CC(C)NS(=O)(=O)c1cccc(NC(=O)c2cccnc2N2CCC3(CC2)CC3)c1 [Example 100-11, N-(3-(N-isopropylsulfamoyl)phenyl)-2-(6-azaspiro[2.5]octan-6-yl)nicotinamide]	0.934 µM
CC(C)(C)NS(=O)(=O)c1cccc(NC(=O)c2cccnc2N2CCC3(CC2)CC3)c1 [Example 100-12, N-(3-(N-(tert-butyl)sulfamoyl)phenyl)-2-(6-azaspiro[2.5]octan-6-yl)nicotinamide]	0.175 µM
Cc1ccc(NC(=O)c2cccnc2N2CCC3(CC2)CC3)cc1S(=O)(=O)NC1CC1 [Example 100-13, N-(3-(N-cyclopropylsulfamoyl)-4-methylphenyl)-2-(6-azaspiro[2.5]octan-6-yl)nicotinamide]	0.712 µM
O=C(Nc1cccc(S(=O)(=O)C2CCCC2)c1)c1cccnc1N1CCC2(CC1)CC2 [Example 100-14, N-(3-(cyclopentylsulfonyl)phenyl)-2-(6-azaspiro[2.5]octan-6-yl)nicotinamide]	0.287 µM
CCC1CCN(c2ncccc2C(=O)Nc2cccc(S(=O)(=O)C3CCCC3)c2)CC1 [Example 100-15, N-(3-(cyclopentylsulfonyl)phenyl)-2-(4-ethylpiperidin-1-yl)nicotinamide]	0.85 µM
CCC1(C)CCN(c2ncccc2C(=O)Nc2cccc(S(=O)(=O)C3CCCC3)c2)CC1 [Example 100-16, N-(3-(cyclopentylsulfonyl)phenyl)-2-(4-ethyl-4-methylpiperidin-1-yl)nicotinamide]	1.01 µM
CCCC1CCN(c2ncccc2C(=O)Nc2cccc(S(=O)(=O)C3CCCC3)c2)CC1 [Example 100-17, N-(3-(cyclopentylsulfonyl)phenyl)-2-(4-propylpiperidin-1-yl)nicotinamide]	0.778 µM

The next lines start with the values.

IC50	SMILES
0.07 µM	CC(C)(C)NS(=O)(=O)c1cccc(NC(=O)c2ccc([C@](C)(O)C(F)(F)F)nc2N2CCC3(CC2)CC3)c1 (single isomer, unassigned) [Example 107-1]
0.097 µM	CC(C)(C)NS(=O)(=O)c1cccc(NC(=O)c2ccc([C@@](C)(O)C(F)(F)F)nc2N2CCC3(CC2)CC3)c1 (single isomer, unassigned) [Example 107-2]
0.087 µM	CC(C)(C)NS(=O)(=O)c1cccc(NC(=O)c2ccc([C@](C)(O)CO)nc2N2CCC3(CC2)CC3)c1 (single isomer, unassigned) [Example 109-1]
0.065 µM	CC(C)(C)NS(=O)(=O)c1cccc(NC(=O)c2ccc([C@@](C)(O)CO)nc2N2CCC3(CC2)CC3)c1 (single isomer, unassigned) [Example 109-2]
0.134 µM	O=C(Nc1cccc(S(=O)(=O)C2CCCC2)c1)c1cccnc1N1CCC2(CCC2)CC1 [Example 100-18, N-(3-(cyclopentylsulfonyl)phenyl)-2-(7-azaspiro[3.5]nonan-7-yl)nicotinamide]
0.734 µM	O=C(Nc1cccc(S(=O)(=O)C2CCCC2)c1)c1cccnc1N1CCC2(CC1)CC(F)(F)C2 [Example 100-19, N-(3-(cyclopentylsulfonyl)phenyl)-2-(2,2-difluoro-7-azaspiro[3.5]nonan-7-yl)nicotinamide]
0.279 µM	Cc1ccc(NC(=O)c2cccnc2N2CCC3(CC2)CC3)cc1S(=O)(=O)C1CCCC1 [Example 100-20, N-(3-(cyclopentylsulfonyl)-4-methylphenyl)-2-(6-azaspiro[2.5]octan-6-yl)nicotinamide]
0.76 µM	O=C(Nc1cccc(S(=O)(=O)C2CCCC2)c1F)c1cccnc1N1CCC2(CC1)CC2 [Example 100-21, N-(3-(cyclopentylsulfonyl)-2-fluorophenyl)-2-(6-azaspiro[2.5]octan-6-yl)nicotinamide]
0.91 µM	O=C(Nc1cccc(S(=O)(=O)CC2CC2)c1)c1cccnc1N1CCC2(CC1)CC2 [Example 100-22, N-(3-((cyclopropylmethyl)sulfonyl)phenyl)-2-(6-azaspiro[2.5]octan-6-yl)nicotinamide]
0.61 µM	O=C(Nc1cccc(S(=O)(=O)C2CCCCC2)c1)c1cccnc1N1CCC2(CC1)CC2 [Example 100-23, N-(3-(cyclohexylsulfonyl)phenyl)-2-(6-azaspiro[2.5]octan-6-yl)nicotinamide]
0.923 µM	O=C(Nc1cccc(S(=O)(=O)C2CCC2)c1)c1cccnc1N1CCC2(CC1)CC2 [Example 100-24, N-(3-(cyclobutylsulfonyl)phenyl)-2-(6-azaspiro[2.5]octan-6-yl)nicotinamide]
0.517 µM	O=C(Nc1cccc(S(=O)(=O)NC2CC2)c1)c1cccnc1N1CCC2(CC1)CC2 [Example 101, N-(3-(N-cyclopropylsulfamoyl)phenyl)-2-(6-azaspiro[2.5]octan-6-yl)nicotinamide]
0.323 µM	O=C(Nc1cccc(S(=O)(=O)NC2CCC2)c1)c1cccnc1N1CCC2(CC1)CC2 [Example 101-1, N-(3-(N-cyclobutylsulfamoyl)phenyl)-2-(6-azaspiro[2.5]octan-6-yl)nicotinamide]
0.61 µM	CN(C1CCC1)S(=O)(=O)c1cccc(NC(=O)c2cccnc2N2CCC3(CC2)CC3)c1 [Example 101-2, N-(3-(N-cyclobutyl-N-methylsulfamoyl)phenyl)-2-(6-azaspiro[2.5]octan-6-yl)nicotinamide]
0.189 µM	CC1(NS(=O)(=O)c2cccc(NC(=O)c3cccnc3N3CCC4(CC3)CC4)c2)CCC1 [Example 101-3, N-(3-(N-(1-methylcyclobutyl)sulfamoyl)phenyl)-2-(6-azaspiro[2.5]octan-6-yl)nicotinamide]
0.918 µM	O=C(Nc1cccc(S(=O)(=O)NC2CCCCC2)c1)c1cccnc1N1CCC2(CC1)CC2 [Example 101-4, N-(3-(N-cyclohexylsulfamoyl)phenyl)-2-(6-azaspiro[2.5]octan-6-yl)nicotinamide]
0.401 µM	O=C(Nc1cccc(S(=O)(=O)N2CC(F)(F)C2)c1)c1cccnc1N1CCC2(CC1)CC2 [Example 101-5, N-(3-((3,3-difluoroazetidin-1-yl)sulfonyl)phenyl)-2-(6-azaspiro[2.5]octan-6-yl)nicotinamide]
0.581 µM	O=C(Nc1cccc(S(=O)(=O)N2CCC(F)(F)C2)c1)c1cccnc1N1CCC2(CC1)CC2 [Example 101-6, N-(3-((3,3-difluoropyrrolidin-1-yl)sulfonyl)phenyl)-2-(6-azaspiro[2.5]octan-6-yl)nicotinamide]
0.32 µM	CC1(NS(=O)(=O)c2cccc(NC(=O)c3cccnc3N3CCC4(CC3)CC4)c2)CC1 [Example 101-7, N-(3-(N-(1-methylcyclopropyl)sulfamoyl)phenyl)-2-(6-azaspiro[2.5]octan-6-yl)nicotinamide]
